Literature values as cited in US20100015233A1, “anti-parasitic compositions” (priority 2006, published 2010).
Converted amounts (≈) assume the structure as drawn.

Experiments:
[1] = in vivo

**Q.** With `CCCCN(CCCC)CC(O)c1cc(Cl)cc2c1-c1ccc(Cl)cc1/C2=C/c1ccc(Cl)cc1` (centres unmarked) [Lumefantrine] as the compound, how does the half-life [1] read?
**A.** 72 to 140 h

**Q.** For `C[C@@H]1CC[C@H]2[C@@H](C)C(=O)O[C@@H]3O[C@@]4(C)CC[C@@H]1[C@]32OO4` [artemisinin], which solubility in water is on record?
**A.** 84 µg/mL (≈ 298 µM)
